Assay results taken from PMC9697438, “Therapeutic Potential of 2-Methylquinazolin-4(3H)-one as an Antiviral Agent against Influenza A Virus-Induced Acute Lung Injury in Mice” (Molecules, 2022).
Values after ≈ are worked out from the molar mass of the structure shown. Where two headings read alike, the source gives them in different places.

Legend:
H1N1 virus = assay: microbe, parasite or virus in culture; assay type: cell-based, influenza A virus; details: for IC50: Influenza A virus, H1N1, MDCK, 72 h
Solubility observation = assay type: physicochemical; details: sterile water
neuraminidase (NA) = assay: Neuraminidase activity assay in lung homogenates of H1N1-infected mice; assay type: in vivo, BALB/c mice
Experimental: (§1) Five-week-old healthy male BALB/c mice (n = 6 per group) were maintained in pathogen-free individual cages with free access to drinking water and sterilized food, as described previously. The mice were randomly allocated into the following groups: normal control group, H1N1 model group, C1 (2.5, 5, 10 mg/kg) treatment group, and positive control group treated with oseltamivir (20 mg/kg, positive control). Except for normal controls, the rest of mice were intranasally infected with 30 μL of diluted H1N1virus (3LD50) after light anesthesia. Negative control mice (normal group) were challenged by inhaling equal volumes (30 μL) of virus diluent as the other mice. Then, 2 h later, C1 (2.5, 5, 10 mg/kg) and Oseltamivir (20 mg/kg) dissolved in 5% CMC-Na solution were given to mice (0.1 mL/10 g) once per day (i.g.) at day 0 (D0), day 1 (D1), day 2 (D2) and day 3 (D3) after infection with H1N1 virus. […]
Viral titers were measured using neuraminidase (NA) assay kit designed to detect antiviral effects. […] A reaction mixture consisted of 10 μL lung homogenates, 70 μL detection buffer, 10 μL Mill-Q water and 10 μL NA fluorescence substrate in a 96-well plate. […] The fluorescence of the mixture was quantified at 322 nm of excitation wavelength and 450 nm of emission wavelength with a muti-mode microplate read (Waltham, VT, USA). […]

[1] = system: influenza A virus nucleoprotein (NP); assay: Immunohistochemistry of viral nucleoprotein in lung tissue of H1N1-infected mice; assay type: in vivo, BALB/c mice; details: C1-treated mice vs indirubin-treated mice and model group; day 4
Experimental: as §1, with “mice.” for “mice. Then, 2 h later, C1 (2.5, 5, 10 mg/kg) and Oseltamivir (20 mg/kg) dissolved in 5% CMC-Na solution were given to mice (0.1 mL/10 g) once per day (i.g.) at day 0 (D0), day 1 (D1), day 2 (D2) and day 3 (D3) after infection with H1N1 virus.”
Influenza virus load, expression of NPs and ionized calcium binding adaptor molecule-1(Iba-1) were determined using IHC. […]
Figure 4 Suppression of H1N1 viral replication in vivo by C1, the experimental protocol is the same as Figure 3. (A) The NA activity in lung homogenates by fluorescence effect; (B) The expression level of INF-α in lung homogenates by ELISA; (C) The expression of NP in lung tissue, the representative IHC pathological images of the lung on day 4 post-infection, the red arrow indicates viral N protein-positive signal. […]

[2] = system: ionized calcium binding adaptor molecule-1 (Iba-1); set-up: species or system BALB/c mice; details: mouse, in vivo
[3] = system: cytokines in lung homogenates; assay: ELISA of cytokines in lung tissue homogenates of H1N1-infected mice; assay type: in vivo, BALB/c mice; details: for expression level of IL-10 in lung homogenates / expression level of INF-γ in lung homogenates: C1 10 mg/kg, Os. 20 mg/kg, vs H1N1 virus group; for IL-1β level in lung homogenates / IL-6 level in lung homogenates / MCP-1 production in lung homogenates / TNF-α level in lung homogenates: C1 2.5, 5, 10 mg/kg, oseltamivir phosphate 20 mg/kg, vs model group, dose-dependent, p < 0.001, day 4
Experimental: Five-week-old healthy male BALB/c mice (n = 6 per group) were maintained in pathogen-free individual cages with free access to drinking water and sterilized food, as described previously. The mice were randomly allocated into the following groups: normal control group, H1N1 model group, C1 (2.5, 5, 10 mg/kg) treatment group, and positive control group treated with oseltamivir (20 mg/kg, positive control). Except for normal controls, the rest of mice were intranasally infected with 30 μL of diluted H1N1virus (3LD50) after light anesthesia. Negative control mice (normal group) were challenged by inhaling equal volumes (30 μL) of virus diluent as the other mice. Then, 2 h later, C1 (2.5, 5, 10 mg/kg) and Oseltamivir (20 mg/kg) dissolved in 5% CMC-Na solution were given to mice (0.1 mL/10 g) once per day (i.g.) at day 0 (D0), day 1 (D1), day 2 (D2) and day 3 (D3) after infection with H1N1 virus. At the same time, normal and model groups were administered equivalent amounts of 0.5% CMC-Na in the same way. Post-infection on day 4, the mice were sacrificed to collect blood plasma, lung and liver, which were weighed.
Pulmonary tissue homogenates were collected from mice lungs by centrifugation at 4500 rpm for 20 min. BCA assay was used to quantify the total protein in the supernatant of lung homogenates. Cytokine levels of IL-1β, IL-6, TNF-α, IL-10, MCP-1, INF-γ and INF-α were determined, as instructed by the manufacturer.
Figure 5 C1-alleviated lung injury in mice after 4 days of administration (n = 6, means ± S.D.); the experiment design is the same as Figure 3. Concentration of chemokines/cytokines/interferon was measured on day 4 post-infection by ELISA in lung homogenates (n = 6). (A) IL-6; (B) IL-1β; (C) TNF-α; (D) MCP-1; (E) IL-10; (F) IFN-γ.

[4] = system: influenza virus H1N1 (A/FM/1/47); details: for lung index: day 4, p < 0.001 vs model
A549 cells [5] = assay: MTT cytotoxicity assay (TC50)
A549 cells [6] = details: human
hepatitis C virus = system: hepatitis C virus; set-up: method as in earlier work; details: cited from earlier work
H1N1 influenza virus = assay: H1N1-induced ALI in mice treated with EA extract: lung index, liver index, body weight, H&E; assay type: in vivo

## Cc1nc2ccccc2c(=O)[nH]1 [Compound C1, 2-Methylquinazolin-4(3H)-one]
H1N1 virus
  IC50: 23.8 µg/mL (≈ 149 µM)
Solubility observation
  solubility: soluble
Neuraminidase (NA); C1 2.5 mg/kg, vs model control
  NA activity in lung homogenates: no differences
Neuraminidase (NA); C1 5, 10 mg/kg, vs model group, p < 0.05
  NA activity in lung homogenates: significantly lower
[1]
  viral N protein-positive signals in lung tissue: fewer positive signals
[2]
  Iba-1 positive signals in lung tissue (macrophage recruitment): fewer positive signals
[3]
  expression level of IL-10 in lung homogenates: higher
  expression level of INF-γ in lung homogenates: higher
  IL-1β level in lung homogenates: significantly reduced
  IL-6 level in lung homogenates: significantly reduced
  MCP-1 production in lung homogenates: significantly reduced
  TNF-α level in lung homogenates: significantly reduced
[3]; after treatment with C1, ELISA
  production of IFN-α in lung homogenates: remarkably decreased
[4]; C1 2.5 mg/kg i.g. once daily D0-D3, model 10.27 ± 0.50, normal 6.40 ± 0.14
  lung index: 8.85 ± 0.47 mg/g
[4]; C1 2.5 mg/kg, days 0-4, model decreased 4.5%
  weight rate of mice raised: 2%
[4]; C1 5 mg/kg i.g. once daily D0-D3, model 10.27 ± 0.50
  lung index: 8.60 ± 0.29 mg/g
[4]; C1 5 mg/kg, days 0-4, model decreased 4.5%
  weight rate of mice decreased: 2%
[4]; C1 10 mg/kg i.g. once daily D0-D3, model 10.27 ± 0.50
  lung index: 8.36 ± 0.28 mg/g
[4]; C1 10 mg/kg, days 0-4
  weight rate of mice raised: 0.2%
[4]; mouse, in vivo
  lung histological damage (H&E): significantly less
[4]; mouse, in vivo, po
  toxicity on liver and spleen: no toxicity
A549 cells [5]
  TC50: 79.7 µg/mL (≈ 498 µM)

## CC1(C)C[C@H](O)C[C@@]2(C)OC(=O)C=C12 [Compound C2, loliolide]
H1N1 virus
  antiviral activity: did not exert any antiviral activity
A549 cells [6]
  TC50: 26.7 µg/mL (≈ 136 µM)
Hepatitis C virus
  inhibition of the hepatitis C virus: potent inhibitor

## Cc1nc2ccccc2c(=O)n1-c1ccccc1O [Compound C3, 3-(2′-Hydroxyphenyl)-2-methyl-4(3H)-quinazolinone]
H1N1 virus
  IC50: 100 µg/mL (≈ 396 µM)
A549 cells [5]
  TC50: 106.8 µg/mL (≈ 423 µM)

## O=C1c2cc(O)cc(O)c2CN1c1ccc(O)cc1 [Compound C4, clitocybin A]
H1N1 virus
  antiviral activity: did not exert any antiviral activity
A549 cells [5]
  TC50: 167.7 µg/mL (≈ 652 µM)

## CCOC(=O)C1=C[C@@H](OC(CC)CC)[C@H](NC(C)=O)[C@@H](N)C1 [Os., Oseltamivir phosphate, reference compound]
[3]
  expression level of IL-10 in lung homogenates: higher
  expression level of INF-γ in lung homogenates: higher
  IL-1β level in lung homogenates: significantly reduced
  IL-6 level in lung homogenates: significantly reduced
  MCP-1 production in lung homogenates: significantly reduced
  TNF-α level in lung homogenates: significantly reduced
[4]; Os. 20 mg/kg, days 0-4
  weight rate of mice raised: 21.6%
[4]; mouse, in vivo
  lung histological damage (H&E): significantly less

## NC(=O)c1ncn([C@@H]2O[C@H](CO)[C@@H](O)[C@H]2O)n1 [Ribavrin, Ribavirin]
H1N1 virus
  IC50: 37.2 µg/mL (≈ 152 µM)
H1N1 influenza virus; EA extract 10 mg/kg, Ribavirbin 100 mg/kg, day 1 to day 5
  body weight over 5 days: gained weight
H1N1 influenza virus; EA extract and Ribavirin groups compared to the infected group
  lung tissue histological changes (H&E): relieved tissue consolidation
H1N1 influenza virus; Ribavirbin 100 mg/kg i.g. once daily 4 days, model 11.58 ± 0.39, p < 0.001
  lung index: 7.32 ± 0.39 mg/g
H1N1 influenza virus; Ribavirbin 100 mg/kg, model 50.73 ± 0.58, normal 62.79 ± 1.24
  liver index: 59.60 ± 1.68 mg/g

## O=C1Nc2ccccc2/C1=C1/Nc2ccccc2C1=O [indirubin, reference compound]
[2]
  Iba-1 positive signals in lung tissue (macrophage recruitment): fewer positive signals
[4]; mouse, in vivo
  lung edema measured as lung index: minimal effect
  lung histological damage (H&E): no evident histological alteration
